Experiments:
[1] = LNP size and PDI by dynamic laser light scattering; assay type: physicochemical; conditions: LNP: 50% cationic lipid, 38.5% cholesterol, 10% DSPC, 1.5% DMG-PEG2000; Ffluc mRNA
Procedure: (§1) 1. The cationic lipid (50 mg/mL) prepared in the above examples of the present disclosure, cholesterol (20 mg/mL), DSPC (20 mg/mL) and DMG-PEG2000 (20 mg/mL) were dissolved in ethanol, and the solution was placed in a 55° C. metal thermostatic bath as needed to aid dissolution, to obtain a lipid mixture with the following molar composition: 1.5% DMG-PEG2000, 50% cationic lipid, 38.5% cholesterol, and 10% DSPC.
(§2) 2. The mRNA encoding Ffluc was diluted with 10 mM pH 4.0 citrate buffer to prepare a 0.2 mg/mL mRNA solution.
(§3) 3. The lipid mixture prepared in step 1 was mixed with the mRNA solution prepared in step 2 using a syringe pump with a tee at a total flow rate of 40 mL/min.
(§4) 4. The LNP mixture was collected after the three-way mixing and placed in a dialysis bag with a molecular weight cut-off of 100 KDa.
(§5) 5. The LNP mixture was dialyzed overnight against 50 mM Tris-buffered saline, pH 7.4.
(§6) 6. Sieving, and subsequent measurement of the sieved LNP to measure the PDI of the LNP by dynamic laser light scattering; to measure the mRNA encapsulation efficiency and concentration by Ribogreen assay; and to measure the pKa by TNS-α assay.

[2] = mRNA encapsulation efficiency of LNP by Ribogreen assay; assay type: physicochemical; conditions: LNP: 50% cationic lipid, 38.5% cholesterol, 10% DSPC, 1.5% DMG-PEG2000; Ffluc mRNA
Procedure: as §1, §2, §3, §4, §5, §6

mice = test: In vivo delivery of Ffluc mRNA LNP in mice, intravenous administration, luminescence relative to MC3; parameters: species or system mice (female Balb/C); conditions: fold change in luminescence intensity relative to MC3; 0.06 mg/kg tail vein; 6 h after injection
Procedure: The prepared encapsulation solution was applied to mice in the following manner, and its delivery efficiency in mice was tested. Among them, DLin-MC3-DMA (MC3) was a cationic liposome for delivering small nucleic acids that was approved by the FDA for marketing in 2018, which has high nucleic acid drug delivery efficiency and biosafety, and was usually used as the industry gold standard in the screening process of cationic lipids. In the evaluation of mice experiments, the ratio of nucleic acid delivery efficiency normalized to MC3 was greater than 0.1, which was considered to be a cationic lipid with high delivery efficiency.
1. The LNP solution was diluted with 50 mM TBS, pH 7.4 to a concentration of 0.1 mg/mL mRNA.
2. The mice involved in this study were female Balb/C, weighing 18-22 g, 6-8 weeks old, with 5 mice in each group.
3. The dosing solution was kept at 4° C. prior to injection.
4. Each mice received 0.06 mg/kg via tail vein injection.
5. The mice were injected intraperitoneally with 200 μL of 1.5 mg/mL D-luciferin solution 6 h after injection.
6. The in vivo luminescence images of the mice were obtained using the IVIS system (Aniview).
7. The luminescence intensity of each mice was measured using Aniview software.
8. MC3 lipid nanoparticles were used as a positive control. The in vivo efficacy of each cationic lipid tested was recorded as the fold change in luminescence intensity relative to MC3 (ratio normalized to MC3).

Row | Structure (SMILES) | PDI [1] | Size (nm) [1] [nm] | Encapsulation Rate [2] [%] | In Vivo Efficacy Normalized To Mc3 In Mice (Intravenous Injection) (mice)
1 | CCCCCCCCCC/C(=C/C(=O)OCCCCCN(CCCO)CCCCCOC(=O)/C=C(\CCCCC)CCCCCCCCCC)CCCCC [CPL-048, ((3-hydroxypropyl)azanediyl)bis(pentane-5,1-diyl) (2E,2′E)-bis(3-pentyltridec-2-enoate)] | 0.2409 | 110.1 | 94 | 1.57
2 | CCCCCCC(=CC(=O)OCCCCCN(CCCO)CCCCCOC(=O)C=C(CCCCCC)CCCCCC)CCCCCC [CPL-049, ((3-hydroxypropyl)azanediyl)bis(pentane-5,1-diyl)(2E,2′E)-bis(3-hexylnon-2-enoate)] | 0.1651 | 101.6 | 90 | 1.88
3 | CCCCCCC/C(=C/C(=O)OCCCCCN(CCCO)CCCCCOC(=O)/C=C(\CCCC)CCCCCCC)CCCC [CPL-052, ((3-hydroxypropyl)azanediyl)bis(pentane-5,1-diyl) (2E,2′E)-bis(3-butyldec-2-enoate)] | 0.1162 | 90.76 | 93 | 1.46
4 | CCCCCCCC/C(=C/C(=O)OCCCCCCN(CCCO)CCCCCCOC(=O)/C=C(\CCC)CCCCCCCC)CCC [CPL-061, ((3-hydroxypropyl)azanediyl)bis(hexane-6,1-diyl) (2E,2′E)-bis(3-propylundec-2-enoate)] | 0.1612 | 94.04 | 94 | 1.06
5 | CCCCCCCC/C(=C/C(=O)OCCCCCCN(CCCO)CCCCCCOC(=O)/C=C(\CCCC)CCCCCCCC)CCCC [CPL-065, ((3-hydroxypropyl)azanediyl)bis(hexane-6,1-diyl) (2E,2′E)-bis(3-butylundec-2-enoate)] | 0.1898 | 83.7 | 95 | 1.62
6 | CCCCCC/C(=C/C(=O)OCCCCCCCN(CCCO)CCCCCCCOC(=O)/C=C(\CCCCC)CCCCCC)CCCCC [CPL-090, ((3-hydroxypropyl)azanediyl)bis(heptane-7,1-diyl) (2E,2′E)-bis(3-pentylnon 2-enoate)] | 0.1615 | 85.28 | 94 | 2.02
7 | CCCCCC/C(=C/C(=O)OCCCCCCCCN(CCCO)CCCCCCCCOC(=O)/C=C(\CCCCC)CCCCCC)CCCCC [CPL-112, ((3-hydroxypropyl)azanediyl)bis(octane-8,1-diyl)(2E,2′E)-bis(3-pentylnon-2-enoate)] | 0.1173 | 85.04 | 95 | 2.14
8 | CCCCCCC/C(=C/C(=O)OCCCCCCCCCCCN(CCCO)CCCCCCCCCCCOC(=O)/C=C(\CCCC)CCCCCCC)CCCC [CPL-184, ((3-hydroxypropyl)azanediyl)bis(undecane-11,1-diyl) (2E,2′E)-bis(3butyldec-2-enoate)] | 0.173 | 84.6 | 94 | 0.98
9 | CCCCC/C=C\C/C=C\CCCCCCCC(=O)OCC(COC(=O)/C=C(\CCCC)CCCCC)COC(=O)OCCN(C)C (centres unmarked) [CPL-199, 3-(((E)-3-butyloct-2-enoyl)oxy)-2-((((2-(dimethylamino)ethoxy)carbonyl)oxy)methyl)propyl(9Z,12Z)-octadeca-9,12-dienoate] | 0.1394 | 86.92 | 96 | 0.12
10 | CCCCC/C=C\C/C=C\CCCCCCCC(=O)OCC(COC(=O)C=C(CCCCCCCC)CCCCCCCC)COC(=O)OCCN(C)C (centres unmarked) [CPL-210, 3-(((2-(dimethylamino)ethoxy)carbonyl)oxy)-2-(((3-octylundec-2-enoyl)oxy)methyl)propyl(9Z,12Z)-octadeca-9,12-dienoate] | 0.2144 | 52.37 | 83 | 0.14
11 | CCCCC/C=C\C/C=C\CCCCCCCC(=O)OCC(COC(=O)/C=C(/CCCC)CCCCCC)COC(=O)OCCCN(C)C (centres unmarked) [CPL-218, 3-(((Z)-3-butylnon-2-enoyl)oxy)-2-((((3-(dimethylamino)propoxy)carbonyl)oxy)methyl)propyl(9Z,12Z)-octadeca-9,12-dienoate] | 0.1194 | 114.4 | 87 | 0.19
12 | CCCCC/C=C\C/C=C\CCCCCCCC(=O)OCC(COC(=O)/C=C(\CCCC)CCCCC)COC(=O)OCCCN(C)C (centres unmarked) [CPL-221, 3-(((E)-3-butyloct-2-enoyl)oxy)-2-((((3-(dimethylamino)propoxy)carbonyl)oxy)methyl)propyl(9Z,12Z)-octadeca-9,12-dienoate] | 0.0453 | 82.01 | 96 | 0.44
13 | CCCCC/C=C\C/C=C\CCCCCCCC(=O)OCC(COC(=O)/C=C(\CCCCC)CCCCCC)COC(=O)OCCCN(C)C (centres unmarked) [CPL-222, 3-(((3-(dimethylamino)propoxy)carbonyl)oxy)-2-((((E)-3-pentylnon-2-enoyl)oxy)methyl)propyl(9Z,12Z)-octadeca-9,12-dienoate] | 0.0629 | 72.01 | 96 | 0.37
14 | CCCCC/C=C\C/C=C\CCCCCCCC(=O)OCC(COC(=O)/C=C(\CCCCC)CCCCCCCC)COC(=O)OCCCN(C)C (centres unmarked) [CPL-223, 3-(((3-(dimethylamino)propoxy)carbonyl)oxy)-2-((((E)-3-pentylundec-2-enoyl)oxy)methyl)propyl(9Z,12Z)-octadeca-9,12-dienoate] | 0.102 | 99.55 | 98 | 0.41
15 | CCCCC/C=C\C/C=C\CCCCCCCC(=O)OCC(COC(=O)/C=C(\CCCCC)CCCCCCCCCC)COC(=O)OCCCN(C)C (centres unmarked) [CPL-224, 3-(((3-(dimethylamino)propoxy)carbonyl)oxy)-2-((((E)-3-pentyltridec-2-enoyl)oxy)methyl)propyl(9Z,12Z)-octadeca-9,12-dienoate] | 0.1162 | 90.88 | 94 | 0.87
16 | CCCCC/C=C\C/C=C\CCCCCCCC(=O)OCC(COC(=O)/C=C(\CCCCCCC)CCCCCCCCCC)COC(=O)OCCCN(C)C (centres unmarked) [CPL-231, 3-(((3-(dimethylamino)propoxy)carbonyl)oxy)-2-((((E)-3-heptyltridec-2-enoyl)oxy)methyl)propyl(9Z,12Z)-octadeca-9,12-dienoate] | 0.1118 | 69.42 | 95 | 0.55
17 | CCCCC/C=C\C/C=C\CCCCCCCC(=O)OCC(COC(=O)/C=C(\CCCCCCC)CCCCCCCC)COC(=O)OCCCCN(C)C (centres unmarked) [CPL-252] | 0.1369 | 86.5 | 98 | 0.34

— patent US20250214925A1, “CATIONIC LIPID, LIPOSOME, LIPID NANOPARTICLE, AND USE” (CARCELL BIOPHARMA LTD., priority 2022, published 2025)
